# Laboratory results taken from patent US11007270B2, “Polymer-semaxanib moiety conjugates” (Nektar Therapeutics, priority 2010, dated 2021).
# What was measured:
# RET = RET (Homo sapiens, UniProt P07949); assay: RET kinase inhibition, Caliper screening (fluorescent substrate phosphorylation, electrophoretic separation); conditions: for RET Fold: fold of IC50 relative to sunitinib
# c-Kit = c-Kit (Homo sapiens, UniProt P10721); assay: c-Kit tyrosine kinase inhibition, Caliper screening (fluorescent substrate phosphorylation, electrophoretic separation); assay type: biochemical; conditions: for IC50: averages of replicate wells; for c-Kit Fold: fold of IC50 relative to sunitinib
# VEGFR-2 = VEGFR-2 (Homo sapiens, UniProt P35968); assay: VEGFR-2 kinase inhibition, Caliper screening (fluorescent substrate phosphorylation, electrophoretic separation); conditions: for VEGFR-2 Fold: fold of IC50 relative to sunitinib
# [1] = concentration 1.0E−05 (unit not given)
# [2] = concentration 1.0E−06 (unit not given)
# [3] = concentration 1.0E−07 (unit not given)
# [4] = concentration 1.0E−08 (unit not given)
# [5] = concentration 1.0E−09 (unit not given)
# [6] = concentration 1.0E−10 (unit not given)
# [7] = concentration 3.0E−05 (unit not given)
# [8] = concentration 3.0E−06 (unit not given)
# [9] = concentration 3.0E−07 (unit not given)
# [10] = concentration 3.0E−08 (unit not given)
# [11] = concentration 3.0E−09 (unit not given)
# [12] = concentration 3.0E−10 (unit not given)
# Sequence of RET (P07949 29-1114, species assumed): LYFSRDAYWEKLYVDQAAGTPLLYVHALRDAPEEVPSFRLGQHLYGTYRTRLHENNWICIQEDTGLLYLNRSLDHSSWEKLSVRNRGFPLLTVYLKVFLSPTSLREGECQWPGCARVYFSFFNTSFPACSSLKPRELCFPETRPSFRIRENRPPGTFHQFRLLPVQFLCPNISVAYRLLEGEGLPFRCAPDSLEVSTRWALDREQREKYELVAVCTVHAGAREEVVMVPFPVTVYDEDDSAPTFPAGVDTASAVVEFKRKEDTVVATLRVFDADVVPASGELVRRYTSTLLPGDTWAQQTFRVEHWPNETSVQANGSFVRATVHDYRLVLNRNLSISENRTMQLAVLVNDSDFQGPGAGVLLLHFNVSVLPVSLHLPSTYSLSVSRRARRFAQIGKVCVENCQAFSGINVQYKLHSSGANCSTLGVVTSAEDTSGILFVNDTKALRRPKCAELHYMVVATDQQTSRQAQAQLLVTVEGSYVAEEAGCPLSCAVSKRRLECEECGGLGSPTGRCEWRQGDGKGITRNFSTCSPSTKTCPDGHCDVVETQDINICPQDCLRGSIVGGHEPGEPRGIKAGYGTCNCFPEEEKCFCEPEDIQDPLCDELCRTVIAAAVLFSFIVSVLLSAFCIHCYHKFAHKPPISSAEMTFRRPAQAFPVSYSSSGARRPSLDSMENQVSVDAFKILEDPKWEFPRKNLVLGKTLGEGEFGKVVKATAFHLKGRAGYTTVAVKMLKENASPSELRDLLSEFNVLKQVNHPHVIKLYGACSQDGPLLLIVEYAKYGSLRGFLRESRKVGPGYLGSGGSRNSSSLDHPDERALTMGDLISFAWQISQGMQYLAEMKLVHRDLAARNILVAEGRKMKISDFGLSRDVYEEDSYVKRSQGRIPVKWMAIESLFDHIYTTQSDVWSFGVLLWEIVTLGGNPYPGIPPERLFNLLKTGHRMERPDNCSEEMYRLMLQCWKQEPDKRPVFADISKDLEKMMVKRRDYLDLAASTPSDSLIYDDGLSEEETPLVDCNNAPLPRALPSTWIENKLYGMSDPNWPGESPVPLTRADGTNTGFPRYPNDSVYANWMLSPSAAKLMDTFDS
# Sequence of c-Kit (P10721 26-976): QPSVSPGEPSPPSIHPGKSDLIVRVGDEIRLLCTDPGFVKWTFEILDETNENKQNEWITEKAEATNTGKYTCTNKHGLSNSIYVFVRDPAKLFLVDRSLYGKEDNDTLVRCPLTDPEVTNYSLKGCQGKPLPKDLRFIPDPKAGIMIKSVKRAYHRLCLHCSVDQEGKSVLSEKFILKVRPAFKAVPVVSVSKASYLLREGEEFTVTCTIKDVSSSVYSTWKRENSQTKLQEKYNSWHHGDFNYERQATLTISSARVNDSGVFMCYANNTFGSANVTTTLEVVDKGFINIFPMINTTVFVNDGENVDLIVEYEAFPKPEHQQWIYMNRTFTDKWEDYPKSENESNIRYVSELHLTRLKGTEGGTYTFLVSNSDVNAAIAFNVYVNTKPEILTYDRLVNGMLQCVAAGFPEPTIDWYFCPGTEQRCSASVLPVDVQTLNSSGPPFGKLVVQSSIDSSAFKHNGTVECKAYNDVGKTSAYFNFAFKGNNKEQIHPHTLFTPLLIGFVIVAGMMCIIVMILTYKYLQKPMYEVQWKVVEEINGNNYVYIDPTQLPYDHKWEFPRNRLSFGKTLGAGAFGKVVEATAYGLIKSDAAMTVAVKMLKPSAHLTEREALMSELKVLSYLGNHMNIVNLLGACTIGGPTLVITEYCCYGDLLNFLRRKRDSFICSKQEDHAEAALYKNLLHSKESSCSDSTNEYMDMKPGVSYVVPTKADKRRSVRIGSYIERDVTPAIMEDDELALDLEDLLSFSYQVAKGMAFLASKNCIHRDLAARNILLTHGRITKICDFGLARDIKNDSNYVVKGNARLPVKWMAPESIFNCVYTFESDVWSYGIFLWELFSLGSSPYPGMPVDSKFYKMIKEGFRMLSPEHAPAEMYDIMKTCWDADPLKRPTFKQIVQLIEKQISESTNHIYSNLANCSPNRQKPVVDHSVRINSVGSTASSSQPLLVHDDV
# Sequence of VEGFR-2 (P35968 20-1356, species assumed): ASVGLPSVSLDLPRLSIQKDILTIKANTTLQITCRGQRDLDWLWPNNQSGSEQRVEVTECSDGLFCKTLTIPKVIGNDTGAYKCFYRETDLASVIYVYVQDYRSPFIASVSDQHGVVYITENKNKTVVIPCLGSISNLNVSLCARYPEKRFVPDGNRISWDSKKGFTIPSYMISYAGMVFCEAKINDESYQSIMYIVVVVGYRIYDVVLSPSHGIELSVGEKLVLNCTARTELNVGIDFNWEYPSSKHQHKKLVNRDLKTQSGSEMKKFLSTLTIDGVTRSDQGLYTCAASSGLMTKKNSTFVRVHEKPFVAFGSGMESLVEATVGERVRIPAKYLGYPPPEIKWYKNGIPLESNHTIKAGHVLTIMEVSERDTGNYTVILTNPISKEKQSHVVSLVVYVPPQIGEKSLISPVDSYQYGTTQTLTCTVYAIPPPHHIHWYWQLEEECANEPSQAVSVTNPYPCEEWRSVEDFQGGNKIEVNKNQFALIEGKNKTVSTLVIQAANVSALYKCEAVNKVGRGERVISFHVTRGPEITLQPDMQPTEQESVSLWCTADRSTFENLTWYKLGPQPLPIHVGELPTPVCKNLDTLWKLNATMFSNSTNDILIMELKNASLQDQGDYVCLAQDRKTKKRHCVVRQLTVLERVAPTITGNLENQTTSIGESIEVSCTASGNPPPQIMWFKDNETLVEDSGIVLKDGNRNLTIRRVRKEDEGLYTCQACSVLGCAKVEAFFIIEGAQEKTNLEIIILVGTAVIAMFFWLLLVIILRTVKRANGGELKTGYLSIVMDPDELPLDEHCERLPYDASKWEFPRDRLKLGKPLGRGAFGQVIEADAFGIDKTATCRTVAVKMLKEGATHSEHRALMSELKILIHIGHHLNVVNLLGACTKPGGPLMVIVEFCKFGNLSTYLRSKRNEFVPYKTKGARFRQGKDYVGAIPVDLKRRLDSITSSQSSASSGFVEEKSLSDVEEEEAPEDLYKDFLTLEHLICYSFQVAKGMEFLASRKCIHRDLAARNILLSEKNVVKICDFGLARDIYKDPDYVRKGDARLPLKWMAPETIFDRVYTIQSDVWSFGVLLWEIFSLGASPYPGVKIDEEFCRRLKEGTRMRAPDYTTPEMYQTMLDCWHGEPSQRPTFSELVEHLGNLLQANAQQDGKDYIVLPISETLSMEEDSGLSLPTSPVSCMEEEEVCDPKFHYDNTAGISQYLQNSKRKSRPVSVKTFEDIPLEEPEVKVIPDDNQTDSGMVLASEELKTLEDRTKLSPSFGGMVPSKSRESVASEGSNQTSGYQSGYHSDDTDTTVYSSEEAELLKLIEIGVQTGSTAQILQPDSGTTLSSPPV
compound,measurement,setting,value
"COCCOCCOCCOCCOCCOCCOCCNC(=O)c1c(C)[nH]c(/C=C2\C(=O)Nc3ccc(F)cc32)c1C [mPEG7-semaxanib, (Z)-5-((5-fluoro-2-oxoindolin-3-ylidene)methyl)-2,4-dimethyl-1H-pyrrole-3-mPEG7-amide]",IC50,RET,620 nM
same,RET AVG % Activity at Specific Concentration,RET; [1],2%
same,RET AVG % Activity at Specific Concentration,RET; [2],38%
same,RET AVG % Activity at Specific Concentration,RET; [3],85%
same,RET AVG % Activity at Specific Concentration,RET; [4],98%
same,RET AVG % Activity at Specific Concentration,RET; [5],99%
same,RET AVG % Activity at Specific Concentration,RET; [6],98%
same,RET AVG % Activity at Specific Concentration,RET; [7],0%
same,RET AVG % Activity at Specific Concentration,RET; [8],14%
same,RET AVG % Activity at Specific Concentration,RET; [9],68%
same,RET AVG % Activity at Specific Concentration,RET; [10],93%
same,RET AVG % Activity at Specific Concentration,RET; [11],99%
same,RET AVG % Activity at Specific Concentration,RET; [12],98%
same,RET Fold,RET,14.42
same,IC50,c-Kit,320 nM
same,c-Kit AVG % Activity at Specific Concentration,c-Kit; [1],−1%
same,c-Kit AVG % Activity at Specific Concentration,c-Kit; [2],11%
same,c-Kit AVG % Activity at Specific Concentration,c-Kit; [3],82%
same,c-Kit AVG % Activity at Specific Concentration,c-Kit; [4],96%
same,c-Kit AVG % Activity at Specific Concentration,c-Kit; [5],97%
same,c-Kit AVG % Activity at Specific Concentration,c-Kit; [6],97%
same,c-Kit AVG % Activity at Specific Concentration,c-Kit; [7],−1%
same,c-Kit AVG % Activity at Specific Concentration,c-Kit; [8],1%
same,c-Kit AVG % Activity at Specific Concentration,c-Kit; [9],49%
same,c-Kit AVG % Activity at Specific Concentration,c-Kit; [10],96%
same,c-Kit AVG % Activity at Specific Concentration,c-Kit; [11],98%
same,c-Kit AVG % Activity at Specific Concentration,c-Kit; [12],96%
same,c-Kit Fold,c-Kit,4.30
same,IC50,VEGFR-2,310 nM
same,VEGFR-2 AVG % Activity at Specific Concentration,VEGFR-2; [1],−3%
same,VEGFR-2 AVG % Activity at Specific Concentration,VEGFR-2; [2],19%
same,VEGFR-2 AVG % Activity at Specific Concentration,VEGFR-2; [3],80%
same,VEGFR-2 AVG % Activity at Specific Concentration,VEGFR-2; [4],95%
same,VEGFR-2 AVG % Activity at Specific Concentration,VEGFR-2; [5],95%
same,VEGFR-2 AVG % Activity at Specific Concentration,VEGFR-2; [6],98%
same,VEGFR-2 AVG % Activity at Specific Concentration,VEGFR-2; [7],−6%
same,VEGFR-2 AVG % Activity at Specific Concentration,VEGFR-2; [8],0%
same,VEGFR-2 AVG % Activity at Specific Concentration,VEGFR-2; [9],46%
same,VEGFR-2 AVG % Activity at Specific Concentration,VEGFR-2; [10],90%
same,VEGFR-2 AVG % Activity at Specific Concentration,VEGFR-2; [11],93%
same,VEGFR-2 AVG % Activity at Specific Concentration,VEGFR-2; [12],94%
same,VEGFR-2 Fold,VEGFR-2,6.33
"COCCOCCOCCOCCOCCOCCOCCOCCNC(=O)c1c(C)[nH]c(/C=C2\C(=O)Nc3ccc(F)cc32)c1C [mPEG8-semaxanib, (Z)-5-((5-fluoro-2-oxoindolin-3-ylidene)methyl)-2,4-dimethyl-1H-pyrrole-3-mPEG8-amide]",IC50,RET,990 nM
same,RET AVG % Activity at Specific Concentration,RET; [1],5%
same,RET AVG % Activity at Specific Concentration,RET; [2],52%
same,RET AVG % Activity at Specific Concentration,RET; [3],92%
same,RET AVG % Activity at Specific Concentration,RET; [4],100%
same,RET AVG % Activity at Specific Concentration,RET; [5],102%
same,RET AVG % Activity at Specific Concentration,RET; [6],100%
same,RET AVG % Activity at Specific Concentration,RET; [7],0%
same,RET AVG % Activity at Specific Concentration,RET; [8],20%
same,RET AVG % Activity at Specific Concentration,RET; [9],75%
same,RET AVG % Activity at Specific Concentration,RET; [10],94%
same,RET AVG % Activity at Specific Concentration,RET; [11],97%
same,RET AVG % Activity at Specific Concentration,RET; [12],99%
same,RET Fold,RET,23.02
same,IC50,c-Kit,300 nM
same,c-Kit AVG % Activity at Specific Concentration,c-Kit; [1],−1%
same,c-Kit AVG % Activity at Specific Concentration,c-Kit; [2],11%
same,c-Kit AVG % Activity at Specific Concentration,c-Kit; [3],75%
same,c-Kit AVG % Activity at Specific Concentration,c-Kit; [4],97%
same,c-Kit AVG % Activity at Specific Concentration,c-Kit; [5],98%
same,c-Kit AVG % Activity at Specific Concentration,c-Kit; [6],94%
same,c-Kit AVG % Activity at Specific Concentration,c-Kit; [7],−1%
same,c-Kit AVG % Activity at Specific Concentration,c-Kit; [8],1%
same,c-Kit AVG % Activity at Specific Concentration,c-Kit; [9],49%
same,c-Kit AVG % Activity at Specific Concentration,c-Kit; [10],93%
same,c-Kit AVG % Activity at Specific Concentration,c-Kit; [11],98%
same,c-Kit AVG % Activity at Specific Concentration,c-Kit; [12],94%
same,c-Kit Fold,c-Kit,4.10
same,IC50,VEGFR-2,430 nM
same,VEGFR-2 AVG % Activity at Specific Concentration,VEGFR-2; [1],−3%
same,VEGFR-2 AVG % Activity at Specific Concentration,VEGFR-2; [2],24%
same,VEGFR-2 AVG % Activity at Specific Concentration,VEGFR-2; [3],73%
same,VEGFR-2 AVG % Activity at Specific Concentration,VEGFR-2; [4],85%
same,VEGFR-2 AVG % Activity at Specific Concentration,VEGFR-2; [5],86%
same,VEGFR-2 AVG % Activity at Specific Concentration,VEGFR-2; [6],86%
same,VEGFR-2 AVG % Activity at Specific Concentration,VEGFR-2; [7],−6%
same,VEGFR-2 AVG % Activity at Specific Concentration,VEGFR-2; [8],2%
same,VEGFR-2 AVG % Activity at Specific Concentration,VEGFR-2; [9],50%
same,VEGFR-2 AVG % Activity at Specific Concentration,VEGFR-2; [10],78%
same,VEGFR-2 AVG % Activity at Specific Concentration,VEGFR-2; [11],82%
same,VEGFR-2 AVG % Activity at Specific Concentration,VEGFR-2; [12],84%
same,VEGFR-2 Fold,VEGFR-2,8.78
